The results in this text go back to patent US20110117081A1, “FUNCTIONALIZED PYRROLIDINES AND USE THEREOF AS IAP INHIBITORS” (priority 2008, published 2011).

Experiment [1] deals with Colorectal carcinoma HCT116 cells. Briefly: HCT116 + ETR1 cell viability assay (MTT). It counts as cell-based. The following applies: with ETR1 (40 ng/ml), 72 hrs. As for the experimental part: Colorectal carcinoma HCT116 cells (ATCC# CCL-247) were cultured as monolayers in 96 well plates at a density of 2000 cells per well in 100 ul of McCoy's 5a medium (HyClone) supplemented with 2.2 g/L sodium bicarbonate (Gibco), 10% FBS (HyClone) and 1% penecillin/streptomycin (HyClone) for 24 hours. Triplicate wells of cells were treated for 72 hrs at 37° C. (5% CO2) with 50 ul of HGS agonistic Trail receptor antibody, ETR1 (40 ng/ml) in combination with 50 ul of diluted compound (0.01 to 10000 nM). Metabolic viability of remaining cells was assessed by MTT assay.
(§1) The percentage viability of compound-treated cells was expressed as a fraction of the absorbance/luminescence signal obtained from non-treated cells. EC50 values (corresponding to 50% cell survival in the presence of compound as compared to untreated controls) were calculated from MTT survival curves (HCT116 and SKOV3) using BioAssay software (CambridgeSoft) and from Cell Titer-Glo survival curves (synovioycte and Jurkat cells) using GraphPad Prism (Graph Pad Software Inc.). In the below chart, EC50 values are summarized as follows: a=EC50 of less than 10 nM; b=EC50 of 10-100 nM; and c=EC50 of greater than 100 nM.

Experiment [2] relates to Ovarian adenocarcinoma SKOV3 cells. Nature of the experiment: SKOV3 cell viability assay (MTT). The note with it: Homo sapiens, SK-OV-3, 72 hours. It counts as cell-based. As for the experimental part: Ovarian adenocarcinoma SKOV3 cells (ATCC# HTB-77) were cultured as monolayers in McCoy's 5a medium (HyClone) supplemented with 2.2 g/L sodium bicarbonate (Gibco), 10% FBS (HyClone) and 1% penicillin/streptomycin (HyClone). Cells were seeded in tissue culture-treated 96 well plates at 5000 cells/well in 150 ul of media. After 24 hours, triplicate wells of cells were treated with various concentrations of compound (0.01 to 10000 nM) diluted in 50 ul of culture media. Cells were incubated at 37° C. (5% CO2) in the presence of compound for 72 hours. Metabolic viability of remaining cells was assessed by MTT (thiazolyl blue tetrazolium bromide, Sigma) assay. 20 ul of MTT reagent (10 mg/ml) was added per well and plates were incubated for 4 hours at 37° C. (5% CO2). The supernatant was then removed from the plate. The converted MTT product was solubilized with 100 uL of isopropanol and the absorbance was read at 570 nm using a Tecan spectrophotometer.
as §1

As to `CN[C@@H](C)C(=O)N[C@H](C(=O)N1C[C@@H](NC(=O)c2ccc(C(=O)N[C@H]3C[C@@H](C(=O)Nc4cc(C)nn4-c4ccccc4)N(C(=O)[C@@H](NC(=O)[C@H](C)NC)C4CCCCC4)C3)cc2)C[C@H]1C(=O)Nc1cc(C)nn1-c1ccccc1)C1CCCCC1` [Compound 49], the EC50 in experiment [1] lay in the range of 10 to 100 nM.
Take `CN[C@H](C(=O)N[C@H](C(=O)N1C[C@@H](NC(=O)c2ccc(C(=O)N[C@H]3C[C@@H](C(=O)N[C@@H]4CCCc5ccccc54)N(C(=O)[C@@H](NC(=O)[C@@H](NC)C4CC4)C4CCCCC4)C3)cc2)C[C@H]1C(=O)N[C@@H]1CCCc2ccccc21)C1CCCCC1)C1CC1` [Compound 50]: in experiment [1], the concentration giving a half-maximal response (EC50) lay within 10 to 100 nM.
For the compound `CN[C@@H](C)C(=O)N[C@H](C(=O)N1C[C@@H](NC(=O)c2ccc(C(=O)N[C@H]3C[C@@H](C(=O)Nc4ccccc4)N(C(=O)[C@@H](NC(=O)[C@H](C)NC)C4CCCCC4)C3)cc2)C[C@H]1C(=O)Nc1ccccc1)C1CCCCC1` [Compound 47], the EC50 in experiment [1] is below 10 nM.
For `CN[C@@H](C)C(=O)N[C@H](C(=O)N1C[C@@H](NC(=O)c2ccc(C(=O)N[C@H]3C[C@@H](C(=O)NC(c4ccccc4)c4ccccc4)N(C(=O)[C@@H](NC(=O)[C@H](C)NC)C4CCCCC4)C3)cc2)C[C@H]1C(=O)NC(c1ccccc1)c1ccccc1)C1CCCCC1` [Compound 5], the EC50 in experiment [2] and in experiment [1] was below 10 nM throughout.
In the case of `CN[C@@H](C)C(=O)N[C@H](C(=O)N1C[C@@H](NC(=O)c2ccc(C(=O)N[C@H]3C[C@@H](C(=O)N[C@H](C)c4ccc(F)cc4)N(C(=O)[C@@H](NC(=O)[C@H](C)NC)C4CCOCC4)C3)cc2)C[C@H]1C(=O)N[C@H](C)c1ccc(F)cc1)C1CCOCC1` [Compound 42], in experiment [1], the EC50 lay in the range of 10 to 100 nM.
`CN[C@@H](C)C(=O)N[C@H](C(=O)N1C[C@@H](NC(=O)c2ccc(C(=O)N[C@H]3C[C@@H](C(=O)N[C@@H]4CCCc5cc(F)ccc54)N(C(=O)[C@@H](NC(=O)[C@H](C)NC)C4CCCCC4)C3)cc2)C[C@H]1C(=O)N[C@@H]1CCCc2cc(F)ccc21)C1CCCCC1` [Compound 40]: the EC50 in experiment [1] is below 10 nM.
Still for that read-out and setting: as for `CN[C@@H](C)C(=O)N[C@H](C(=O)N1C[C@@H](NC(=O)c2ccc(C(=O)N[C@H]3C[C@@H](C(=O)N[C@H]4CCCc5ccccc54)N(C(=O)[C@@H](NC(=O)[C@H](C)NC)C4CCCCC4)C3)cc2)C[C@H]1C(=O)N[C@H]1CCCc2ccccc21)C1CCCCC1` [Compound 57], the figure is 10 to 100 nM.
Still for that read-out and setting: the same measure for `CN[C@@H](C)C(=O)N[C@H](C(=O)N1C[C@@H](NC(=O)c2cnc(C(=O)N[C@H]3C[C@@H](C(=O)N[C@@H]4CCOc5ccccc54)N(C(=O)[C@@H](NC(=O)[C@H](C)NC)C4CCCCC4)C3)cn2)C[C@H]1C(=O)N[C@@H]1CCOc2ccccc21)C1CCCCC1` [Compound 54]: below 10 nM.
On to `CCCN[C@@H](C)C(=O)N[C@H](C(=O)N1C[C@@H](NC(=O)c2ccc(C(=O)N[C@H]3C[C@@H](C(=O)N[C@@H]4CCCc5ccccc54)N(C(=O)[C@@H](NC(=O)[C@H](C)NCCC)C4CCCCC4)C3)cc2)C[C@H]1C(=O)N[C@@H]1CCCc2ccccc21)C1CCCCC1` [Compound 56], for which the EC50 in experiment [1] was below 10 nM.
Consider `CN[C@@H](C)C(=O)N[C@H](C(=O)N1C[C@@H](NC(=O)c2ccc(C(=O)N[C@H]3C[C@@H](C(=O)N[C@@H]4CCCc5ccccc54)N(C(=O)[C@@H](NC(=O)[C@H](C)NC)C4CCCC4)C3)cc2)C[C@H]1C(=O)N[C@@H]1CCCc2ccccc21)C1CCCC1` [Compound 43], for which the EC50 in experiment [1] was below 10 nM.
As to `CN[C@@H](C)C(=O)N[C@H](C(=O)N1C[C@@H](NC(=O)c2cnc(C(=O)N[C@H]3C[C@@H](C(=O)N[C@@H]4CCCc5ccccc54)N(C(=O)[C@@H](NC(=O)[C@H](C)NC)C4CCCCC4)C3)cn2)C[C@H]1C(=O)N[C@@H]1CCCc2ccccc21)C1CCCCC1` [Compound 55], the EC50 in experiment [1] is below 10 nM.
On the same count and under the same terms, the same measure for `CN[C@@H](C)C(=O)N[C@H](C(=O)N1C[C@@H](NC(=O)c2ccc(C(=O)N[C@H]3C[C@@H](C(=O)N4CCc5ccccc5C4)N(C(=O)[C@@H](NC(=O)[C@H](C)NC)C4CCCCC4)C3)cc2)C[C@H]1C(=O)N1CCc2ccccc2C1)C1CCCCC1` [Compound 35]: 10 to 100 nM; for `CN[C@@H](C)C(=O)N[C@H](C(=O)N1C[C@@H](NC(=O)c2ccc(C(=O)N[C@H]3C[C@@H](C(=O)N[C@@H]4CCOc5cc(F)ccc54)N(C(=O)[C@@H](NC(=O)[C@H](C)NC)C4CCCCC4)C3)cc2)C[C@H]1C(=O)N[C@@H]1CCOc2cc(F)ccc21)C1CCCCC1` [Compound 36]: below 10 nM.
Take `CN[C@@H](C)C(=O)N[C@H](C(=O)N1C[C@@H](NC(=O)c2ccc(C(=O)N[C@H]3C[C@@H](C(=O)N4CC[C@H](c5ccccc5)C4)N(C(=O)[C@@H](NC(=O)[C@H](C)NC)C4CCCCC4)C3)cc2)C[C@H]1C(=O)N1CC[C@H](c2ccccc2)C1)C1CCCCC1` [Compound 39]: the EC50 in experiment [1] was 10 to 100 nM.
As for `CN[C@@H](C)C(=O)N[C@H](C(=O)N1C[C@@H](NC(=O)c2ccc(C(=O)N[C@H]3C[C@@H](C(=O)N[C@@H]4CCCc5ccccc54)N(C(=O)[C@@H](NC(=O)[C@H](C)NC)C4CCOCC4)C3)cc2)C[C@H]1C(=O)N[C@@H]1CCCc2ccccc21)C1CCOCC1` [Compound 46], in experiment [1], the EC50 was 10 to 100 nM.
As for `CCN[C@@H](C)C(=O)N[C@H](C(=O)N1C[C@@H](NC(=O)c2ccc(C(=O)N[C@H]3C[C@@H](C(=O)N[C@@H]4CCCc5ccccc54)N(C(=O)[C@@H](NC(=O)[C@H](C)NCC)C4CCCCC4)C3)cc2)C[C@H]1C(=O)N[C@@H]1CCCc2ccccc21)C1CCCCC1` [Compound 53], the EC50 in experiment [1] is below 10 nM.
Still for that read-out and setting: as for `CN[C@@H](C)C(=O)N[C@H](C(=O)N1C[C@@H](NC(=O)c2ccc(C(=O)N[C@H]3C[C@@H](C(=O)N[C@H](C)c4ccc(OC)cc4)N(C(=O)[C@@H](NC(=O)[C@H](C)NC)C4CCCCC4)C3)cc2)C[C@H]1C(=O)N[C@H](C)c1ccc(OC)cc1)C1CCCCC1` [Compound 34], the figure is below 10 nM; as for `CN[C@@H](C)C(=O)N[C@H](C(=O)N1C[C@@H](NC(=O)c2ccc(C(=O)N[C@H]3C[C@@H](C(=O)NC(C)(C)c4ccccc4)N(C(=O)[C@@H](NC(=O)[C@H](C)NC)C4CCCCC4)C3)cc2)C[C@H]1C(=O)NC(C)(C)c1ccccc1)C1CCCCC1` [Compound 37], below 10 nM; as for `CN[C@@H](C)C(=O)N[C@H](C(=O)N1C[C@@H](NC(=O)c2ccc(C(=O)N[C@H]3C[C@@H](C(=O)N[C@@H]4CCCc5ccc(F)cc54)N(C(=O)[C@@H](NC(=O)[C@H](C)NC)C4CCCCC4)C3)cc2)C[C@H]1C(=O)N[C@@H]1CCCc2ccc(F)cc21)C1CCCCC1` [Compound 33], below 10 nM.
Turning to `CN[C@@H](C)C(=O)N[C@H](C(=O)N1C[C@@H](NC(=O)c2ccc(C(=O)N[C@H]3C[C@@H](C(=O)N[C@@H]4CCCc5ccccc54)N(C(=O)[C@@H](NC(=O)[C@H](C)NC)C4CCC4)C3)cc2)C[C@H]1C(=O)N[C@@H]1CCCc2ccccc21)C1CCC1` [Compound 44], in experiment [1], the EC50 is below 10 nM.
Same read-out and setting: the same measure for `CN[C@@H](C)C(=O)N[C@H](C(=O)N1C[C@@H](NC(=O)c2ccc(C(=O)N[C@H]3C[C@@H](C(=O)Nc4ccccc4-c4ccccc4)N(C(=O)[C@@H](NC(=O)[C@H](C)NC)C4CCCCC4)C3)cc2)C[C@H]1C(=O)Nc1ccccc1-c1ccccc1)C1CCCCC1` [Compound 52]: below 10 nM; for `CN[C@@H](C)C(=O)N[C@H](C(=O)N1C[C@@H](NC(=O)c2ccc(C(=O)N[C@H]3C[C@@H](C(=O)N[C@H]4CCOc5ccccc54)N(C(=O)[C@@H](NC(=O)[C@H](C)NC)C4CCCCC4)C3)cc2)C[C@H]1C(=O)N[C@H]1CCOc2ccccc21)C1CCCCC1` [Compound 58]: 10 to 100 nM; for `CN[C@@H](C)C(=O)N[C@H](C(=O)N1C[C@@H](NC(=O)c2ccc(C(=O)N[C@H]3C[C@@H](C(=O)N(C)[C@H](C)c4ccccc4)N(C(=O)[C@@H](NC(=O)[C@H](C)NC)C4CCCCC4)C3)cc2)C[C@H]1C(=O)N(C)[C@H](C)c1ccccc1)C1CCCCC1` [Compound 48]: 10 to 100 nM.
The same measure, in the same setting: the same measure for `CN[C@@H](C)C(=O)N[C@H](C(=O)N1C[C@@H](NC(=O)c2ccc(C(=O)N[C@H]3C[C@@H](C(=O)Nc4ccccc4-c4ncccn4)N(C(=O)[C@@H](NC(=O)[C@H](C)NC)C4CCCCC4)C3)cc2)C[C@H]1C(=O)Nc1ccccc1-c1ncccn1)C1CCCCC1` [Compound 45]: 10 to 100 nM.
On to `CN[C@@H](C)C(=O)N[C@H](C(=O)N1C[C@@H](NC(=O)c2ccc(C(=O)N[C@H]3C[C@@H](C(=O)NCc4ccc(F)cc4)N(C(=O)[C@@H](NC(=O)[C@H](C)NC)C4CCCCC4)C3)cc2)C[C@H]1C(=O)NCc1ccc(F)cc1)C1CCCCC1` [Compound 38], for which, in experiment [1], the 50% effective concentration (EC50) is below 10 nM.
